Among the test systems are A498 renal; HCC-2998 colon; HCT-15 colon; HL-60(TB) leukemia; HOP-62 NSCLC; HT29 colon; IGROV1 ovarian; M14 melanoma; NCI-H23 lung; RPMI-8226 leukemia; SK-MEL-28 melanoma; TK-10 renal.
Holding throughout (test): DTP human tumour cell line panel, 48 h

This passage reports TGI results from PubChem BioAssay (NCI).

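1) Cells in 96-well plates. 2) Compound, 48 h, 5 concentrations. 3) Linear interpolation between surrounding doses. 4) Unreached endpoint = highest concentration. The concentration for full growth arrest is given as TGI.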

One may read the TGI as the concentration at which net growth stops. Higher therefore signals lower sensitivity of the cells. For `O=C1CC(Br)c2c(Cl)sc(Cl)c21` (stereo unspecified), the TGI with A498 renal came to 38.4 µM; in the assay on HCC-2998 colon, 24.4 µM; in the assay with HCT-15 colon, 28.1 µM; with HL-60(TB) leukemia, 6.9 µM; in the assay on HOP-62 NSCLC, 19.1 µM; in the assay with HT29 colon, 41.7 µM. Also, the TGI in the assay on IGROV1 ovarian worked out at 24.7 µM; in the assay on M14 melanoma it was 26.5 µM; with NCI-H23 lung it was 39.1 µM; with RPMI-8226 leukemia it was 6.45 µM; in the assay on SK-MEL-28 melanoma, 30.3 µM; in the assay with TK-10 renal, 7.3 µM.
For the molecule `Oc1ccc(-c2nc3cc(C(F)(F)F)ccc3n2CC2CCCN3CCCCC23)cc1` (stereo unspecified), the TGI in the assay on A498 renal came out at 29.3 µM; in the assay on HCC-2998 colon it was 21.5 µM; with HCT-15 colon, 30.1 µM; in the assay on HL-60(TB) leukemia, 12.3 µM; in the assay with HOP-62 NSCLC, 26 µM; with HT29 colon it was 34.7 µM. In addition, the TGI in the assay with IGROV1 ovarian was 26 µM; in the assay with M14 melanoma, 32.3 µM; in the assay with NCI-H23 lung it was 30.4 µM; in the assay with RPMI-8226 leukemia, 31.5 µM; in the assay on SK-MEL-28 melanoma, 29.6 µM; with TK-10 renal it was 30.5 µM.
For `COc1cccc(NCC(=O)Nn2c(-c3ccccc3)nc3ccccc3c2=O)c1`, the TGI in the assay with A498 renal was 85 µM; with HCC-2998 colon, above 100 µM; in the assay on HCT-15 colon, above 100 µM; in the assay on HL-60(TB) leukemia it was above 100 µM; in the assay with HOP-62 NSCLC, above 100 µM; with HT29 colon, above 100 µM. The TGI in the assay with IGROV1 ovarian, with M14 melanoma, in the assay on NCI-H23 lung, in the assay on RPMI-8226 leukemia, with SK-MEL-28 melanoma and with TK-10 renal was above 100 µM in each case.
With `NC(=O)N/N=C(\Cc1nc2ccc(C(=O)c3ccccc3)cc2[nH]c1=O)C(=O)Nc1ccc(Br)cc1`, the TGI in the assay with A498 renal, with HCC-2998 colon, with HCT-15 colon, with HL-60(TB) leukemia, in the assay with HOP-62 NSCLC and in the assay with HT29 colon was above 100 µM in each case. In addition, the TGI in the assay on IGROV1 ovarian, with M14 melanoma, in the assay with NCI-H23 lung, in the assay on RPMI-8226 leukemia, in the assay with SK-MEL-28 melanoma and in the assay with TK-10 renal was above 100 µM in each case.
As to `O=[N+]([O-])CC(SCc1ccccc1)c1ccc2c(c1)OCO2` (stereo unspecified), the TGI turned out to be 18.8 µM in the assay on A498 renal; 10.5 µM in the assay with HCC-2998 colon; 15.9 µM in the assay on HCT-15 colon; 3.68 µM with HL-60(TB) leukemia; 33 µM in the assay with HOP-62 NSCLC; 7.64 µM with HT29 colon. Further, the TGI in the assay on IGROV1 ovarian worked out at 12.7 µM; with M14 melanoma, 13.1 µM; with NCI-H23 lung it was 17.5 µM; with RPMI-8226 leukemia, 4.03 µM; in the assay with SK-MEL-28 melanoma, 17 µM; in the assay with TK-10 renal, 25.2 µM.
Regarding `N#CCCC(CC#N)N1CCN(CCO)CC1` (stereo unspecified), the total growth inhibition concentration (TGI) in the assay on A498 renal, in the assay with HCC-2998 colon, with HCT-15 colon, with HL-60(TB) leukemia, in the assay on HOP-62 NSCLC and with HT29 colon was above 100 µM in each case. Further, the TGI in the assay with IGROV1 ovarian, in the assay on M14 melanoma, with NCI-H23 lung, with RPMI-8226 leukemia, with SK-MEL-28 melanoma and with TK-10 renal was above 100 µM each time.
Consider `O=[N+]([O-])c1ccc(Cl)cc1C1ON=C(c2ccccc2)N1C12CC3CC(CC(C3)C1)C2` (stereo unspecified), for which the TGI in the assay on A498 renal, in the assay with HCC-2998 colon, in the assay on HCT-15 colon, in the assay on HL-60(TB) leukemia, in the assay on HOP-62 NSCLC and in the assay with HT29 colon was above 100 µM throughout. Moreover, the TGI in the assay on IGROV1 ovarian, in the assay with M14 melanoma, with NCI-H23 lung, with RPMI-8226 leukemia, in the assay on SK-MEL-28 melanoma and in the assay on TK-10 renal was above 100 µM throughout.
On to `O=c1ccc2ccccc2o1`, for which the TGI in the assay with A498 renal, in the assay with HCC-2998 colon, in the assay with HCT-15 colon, in the assay with HL-60(TB) leukemia, in the assay on HOP-62 NSCLC and in the assay with HT29 colon was above 100 µM each time. The TGI in the assay on IGROV1 ovarian, with M14 melanoma, with NCI-H23 lung, in the assay with RPMI-8226 leukemia, in the assay with SK-MEL-28 melanoma and in the assay on TK-10 renal was above 100 µM in each case.
`Cn1c(N2CCCC2)c(C=O)c(=O)n(C)c1=O`: the TGI in the assay with A498 renal, with HCC-2998 colon, with HCT-15 colon, with HL-60(TB) leukemia, with HOP-62 NSCLC and in the assay with HT29 colon was above 100 µM throughout. The TGI with IGROV1 ovarian, in the assay with M14 melanoma, in the assay with NCI-H23 lung, with RPMI-8226 leukemia, with SK-MEL-28 melanoma and with TK-10 renal was above 100 µM in each case.
As to `COc1ccc(-c2cc(-c3ccc(Nc4ccnc5cc(C(F)(F)F)ccc45)cc3)[nH]c(=O)c2C#N)c2ccccc12`, the TGI in the assay on A498 renal is above 58.4 µM; in the assay with HCC-2998 colon it was above 100 µM; with HCT-15 colon, above 100 µM; in the assay on HL-60(TB) leukemia, above 100 µM; with HOP-62 NSCLC, 47.2 µM; in the assay with HT29 colon, above 74.2 µM. Also, the TGI with IGROV1 ovarian is above 100 µM; with M14 melanoma it was above 70.7 µM; in the assay on NCI-H23 lung, above 100 µM; with RPMI-8226 leukemia it was above 100 µM; in the assay with SK-MEL-28 melanoma it was above 100 µM; in the assay on TK-10 renal, above 90.7 µM.
`Oc1ccc2c(c1)OCC(O)(c1ccccc1O)C2` (stereo unspecified): the TGI in the assay on A498 renal, in the assay with HCC-2998 colon, in the assay with HCT-15 colon, in the assay with HL-60(TB) leukemia, in the assay on HOP-62 NSCLC and with HT29 colon was above 100 µM each time. The TGI with IGROV1 ovarian, in the assay on M14 melanoma, in the assay on NCI-H23 lung, with RPMI-8226 leukemia, in the assay with SK-MEL-28 melanoma and with TK-10 renal was above 100 µM throughout.
Turning to `CCOC(OCC)C(CC)[Se]c1ccccc1[N+](=O)[O-]` (stereo unspecified), the TGI in the assay with A498 renal was 11.6 µM; in the assay with HCC-2998 colon it was 14.3 µM; with HCT-15 colon, 22.2 µM; in the assay with HL-60(TB) leukemia, 3.22 µM; with HOP-62 NSCLC, above 74.2 µM; in the assay with HT29 colon it was 7.31 µM. The TGI with IGROV1 ovarian is above 100 µM; with M14 melanoma, 15.3 µM; with NCI-H23 lung, above 42.7 µM; in the assay on RPMI-8226 leukemia, 23 µM; in the assay on SK-MEL-28 melanoma, above 100 µM; with TK-10 renal it was above 100 µM.
Consider `COc1cc(/C=C2\N=C(c3ccccc3)N(C3Nc4cc5c(cc4S3)NC(N3C(=O)/C(=C/c4cc(OC)c(OC)c(OC)c4)N=C3c3ccccc3)S5)C2=O)cc(OC)c1OC` (stereo unspecified), for which the TGI in the assay with A498 renal, in the assay with HCC-2998 colon, in the assay on HCT-15 colon, in the assay with HL-60(TB) leukemia, in the assay with HOP-62 NSCLC and with HT29 colon was above 100 µM in each case. For the same molecule, the TGI in the assay on IGROV1 ovarian is above 100 µM; in the assay with M14 melanoma, above 100 µM; in the assay on NCI-H23 lung, above 100 µM; with RPMI-8226 leukemia, 95.1 µM; in the assay with SK-MEL-28 melanoma, above 100 µM; in the assay with TK-10 renal, above 100 µM.
